Values belong to the molecule of their own block, whether it stands above or below them. Calls of active or inactive are those of the source.
Assays:
[1] = molecular target: Ubiquitin carboxyl-terminal hydrolase BAP1 (Homo sapiens, UniProt Q92560); assay: BAP1 deubiquitinase inhibitors, dose response, biochemical (AID 714); type: functional
[2] = molecular target: T1, Heat shock factor protein 1 (Mus musculus, UniProt P38532); assay: HSF1 potentiators in luciferase reporter cells, confirmation, cell-based, NIH3T3, luminescence, dose retest (AID 435004); type: functional;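 further: stress induced by proteasome inhibitor MG132 added 30 min after compound; luciferase reporter driven by HSF1 response element in NIH3T3 cells; actives raise luminescence as potentiators of the MG132 stress response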
T1 sequence (P38532 whole entry): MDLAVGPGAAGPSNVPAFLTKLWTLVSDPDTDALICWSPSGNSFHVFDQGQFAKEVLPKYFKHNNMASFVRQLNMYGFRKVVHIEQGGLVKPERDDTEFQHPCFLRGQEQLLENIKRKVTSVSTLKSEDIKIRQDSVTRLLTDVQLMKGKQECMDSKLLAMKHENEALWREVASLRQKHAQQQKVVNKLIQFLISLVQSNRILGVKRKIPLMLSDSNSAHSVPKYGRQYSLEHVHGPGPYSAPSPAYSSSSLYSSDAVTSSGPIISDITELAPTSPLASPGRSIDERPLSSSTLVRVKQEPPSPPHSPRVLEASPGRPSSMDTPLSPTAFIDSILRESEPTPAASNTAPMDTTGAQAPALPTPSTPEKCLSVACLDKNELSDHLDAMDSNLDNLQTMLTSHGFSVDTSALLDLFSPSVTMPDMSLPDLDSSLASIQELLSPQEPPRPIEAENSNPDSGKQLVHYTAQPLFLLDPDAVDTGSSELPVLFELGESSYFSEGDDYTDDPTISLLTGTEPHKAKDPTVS

Beta-galactosidase = Beta-galactosidase (Escherichia coli, UniProt Q8VNN2); assay: Dose response counterscreen for EBI2 assay utilizing the enzyme, b-galactosidase.; type: functional
[3] = molecular target: G-protein coupled receptor 183 (Homo sapiens, UniProt P32249); assay: SAR confirmation of small molecule antagonists of the EBI2 receptor via a luminescent beta-arrestin assa.; type: functional
Paired box protein Pax-8 = Paired box protein Pax-8 (Homo sapiens, UniProt Q06710); assay: inhibitors of PAX8-driven TPO luciferase reporter, dose response, RMG-I cells, cherry-pick (AID 687027); type: functional, cell-based;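 further: luciferase reporter driven by Pax8 target thyroperoxidase promoter measured by SteadyGlo luminescence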
[4] = IOSE-T80 ovarian epithelial cell cytotoxicity, dose response, cytotoxicity control for PAX8 inhibitor project, plate reader, dry powder samples (AID 743045); type: functional, cell-based
[5] = A2780 ovarian cancer cell cytotoxicity, dose response, cytotoxicity control, plate reader, dry powder samples (AID 743046); type: functional, cell-based
[6] = NIH:OVCAR-3 ovarian cancer cell cytotoxicity, dose response, PAX8 inhibitor project, plate reader, dry powder samples (AID 743044); type: functional, cell-based
[7] = IGROV1 ovarian cancer cell cytotoxicity, dose response, PAX8 inhibitor project, plate reader, dry powder samples (AID 743043); type: functional, cell-based; conditions: IGROV-1
[8] = Late-stage results from the probe development effort to identify antagonists of arginine vasopressin receptor 1a (AVPR1a): fluorescence-based cell-based dose response AVPR1a inhibition assay.; type: functional
Vasopressin V1b receptor = Vasopressin V1b receptor (Homo sapiens, UniProt P47901); assay: Late-stage results from the probe development effort to identify antagonists of arginine vasopressin receptor 1a (AVPR1a): fluorescence-based cell-based dose response AVPR1b inhibition counterscreen assay.; type: functional
Vasopressin V2 receptor = Vasopressin V2 receptor (Homo sapiens, UniProt P30518); assay: Late-stage results from the probe development effort to identify antagonists of arginine vasopressin receptor 1a (AVPR1a): fluorescence-based cell-based dose response AVPR2 inhibition counterscreen assay.; type: functional
[9] = Late-stage results from the probe development effort to identify antagonists of arginine vasopressin receptor 1a (AVPR1a): fluorescence-based cell-based dose response OXTR inhibition counterscreen assay.; type: functional
[10] = molecular target: Endoplasmic reticulum aminopeptidase 2 (Homo sapiens, UniProt Q6P179); assay: ERAP2 aminopeptidase inhibitors, dose response, selectivity assay for selective ERAP1 modulator project, biochemical, fluorescence plate reader, cherry-picked, set 2 (AID 743320)
[11] = molecular target: Endoplasmic reticulum aminopeptidase 1 (Homo sapiens, UniProt Q9NZ08); assay: ERAP1 aminopeptidase inhibitors, dose response, biochemical, cherry-pick, set 2, plate reader (AID 743314)
[12] = molecular target: Metabotropic glutamate receptor 5 (Rattus norvegicus, UniProt P31424); assay: Identification of a glycine sulfonamide based non-MPEP site positive allosteric potentiator (PAM) of mGlu5 (calcium_assay).; type: functional
[13] = molecular target: T2, Oxysterols receptor LXR-beta (Homo sapiens, UniProt P55055); type: functional, cell-based;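 further: Cell-based luminescence dose-response assay of agonist activity at LXR, run as a confirmatory counterscreen to a daf-12 agonist screen; HEK293 cells with Gal4-LXR fusion and GAL4-driven luciferase reporter; agonist potency from rising luciferase signal of a Gal4-LXR reporter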
T2 sequence (P55055 whole entry): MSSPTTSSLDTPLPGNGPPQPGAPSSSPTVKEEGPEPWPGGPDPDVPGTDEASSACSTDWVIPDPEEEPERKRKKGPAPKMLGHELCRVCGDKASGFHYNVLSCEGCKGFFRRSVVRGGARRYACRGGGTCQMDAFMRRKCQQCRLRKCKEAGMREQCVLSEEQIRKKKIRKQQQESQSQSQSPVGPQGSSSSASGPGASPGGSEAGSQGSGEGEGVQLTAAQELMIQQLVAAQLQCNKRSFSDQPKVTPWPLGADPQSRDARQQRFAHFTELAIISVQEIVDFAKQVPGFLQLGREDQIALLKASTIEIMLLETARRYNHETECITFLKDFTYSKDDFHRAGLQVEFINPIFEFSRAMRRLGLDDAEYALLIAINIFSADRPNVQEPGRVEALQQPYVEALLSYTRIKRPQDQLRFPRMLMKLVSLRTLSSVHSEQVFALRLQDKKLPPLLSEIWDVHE

cells [14] = assay: cells
[15] = Dose-response inhibition of insulin secretion in a rat insulinoma line at 5 mM glucose (AID 1117331); type: functional, cell-based; conditions: INS-1E
cells [16] = type: functional, cell-based; conditions: INS-1E
Bcl-2-related protein A1 [17] = molecular target: T3, Bcl-2-related protein A1 (Mus musculus, UniProt Q07440); assay: Bfl-1 inhibitors, primary screen, biochemical, fluorescence polarization, FITC-Bid, mouse (AID 432)
T3 sequence (Q07440 whole entry): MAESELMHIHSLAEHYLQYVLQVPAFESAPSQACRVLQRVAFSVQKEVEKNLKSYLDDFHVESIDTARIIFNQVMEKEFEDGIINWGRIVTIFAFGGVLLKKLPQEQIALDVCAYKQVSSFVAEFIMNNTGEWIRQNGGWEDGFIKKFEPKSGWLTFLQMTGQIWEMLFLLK

Bcl-2-related protein A1 [18] = molecular target: T3, Bcl-2-related protein A1; assay: Bfl-1 inhibitors blocking BH3 peptide binding, confirmation, biochemical, TR-FRET, mouse Bfl-1 (AID 621);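 further: TR-FRET binding of GST-Bfl-1 to FITC-labelled Bid peptide via terbium antibody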
[19] = molecular target: T4, Polyadenylate-binding protein 1 (Homo sapiens, UniProt P11940); assay: PABP1 MLLE–PAM2 interaction inhibitors, dose response, miRNA deadenylation inhibitor project, biochemical, fluorescence polarization, Cy5-PAM2 peptide, secondary (AID 602260); type: functional; conditions: read-out: IC50_Mean
[20] = molecular target: T4, Polyadenylate-binding protein 1; assay: PABP1 MLLE–PAM2 binding inhibitor potency, dose response, biochemical, fluorescence polarization, FITC-PAM2 peptide (AID 602259); type: functional; conditions: read-out: IC50_Mean

T4 sequence (P11940 whole entry): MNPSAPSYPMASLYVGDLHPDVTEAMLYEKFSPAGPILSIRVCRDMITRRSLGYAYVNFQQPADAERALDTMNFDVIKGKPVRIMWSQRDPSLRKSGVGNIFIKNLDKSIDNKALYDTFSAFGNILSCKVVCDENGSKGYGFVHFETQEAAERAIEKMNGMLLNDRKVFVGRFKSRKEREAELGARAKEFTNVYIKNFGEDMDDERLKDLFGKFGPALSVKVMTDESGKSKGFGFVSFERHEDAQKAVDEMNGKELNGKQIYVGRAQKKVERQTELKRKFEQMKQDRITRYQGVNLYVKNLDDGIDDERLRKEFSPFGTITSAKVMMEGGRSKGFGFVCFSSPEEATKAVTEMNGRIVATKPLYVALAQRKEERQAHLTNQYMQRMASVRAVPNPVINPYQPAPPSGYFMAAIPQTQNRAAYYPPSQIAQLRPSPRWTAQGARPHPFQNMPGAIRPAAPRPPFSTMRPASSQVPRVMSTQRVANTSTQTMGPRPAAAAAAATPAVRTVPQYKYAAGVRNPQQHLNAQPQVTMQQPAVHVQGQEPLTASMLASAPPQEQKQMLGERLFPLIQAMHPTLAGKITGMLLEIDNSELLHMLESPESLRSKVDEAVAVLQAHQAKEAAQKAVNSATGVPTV
Paired box protein Pax-8, sequence (Q06710 whole entry): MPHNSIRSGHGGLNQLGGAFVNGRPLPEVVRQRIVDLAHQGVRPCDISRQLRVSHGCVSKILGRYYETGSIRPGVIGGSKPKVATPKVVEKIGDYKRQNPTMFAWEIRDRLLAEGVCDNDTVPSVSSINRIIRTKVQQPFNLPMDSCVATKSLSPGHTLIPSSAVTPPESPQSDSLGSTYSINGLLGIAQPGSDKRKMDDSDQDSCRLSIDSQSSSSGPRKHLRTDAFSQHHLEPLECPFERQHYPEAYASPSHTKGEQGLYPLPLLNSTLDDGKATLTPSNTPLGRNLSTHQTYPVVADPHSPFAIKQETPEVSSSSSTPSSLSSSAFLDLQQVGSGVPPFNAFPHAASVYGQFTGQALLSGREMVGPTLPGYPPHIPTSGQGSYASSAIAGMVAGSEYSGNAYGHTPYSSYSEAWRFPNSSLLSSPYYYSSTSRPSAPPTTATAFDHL
Beta-galactosidase, sequence (Q8VNN2 whole entry): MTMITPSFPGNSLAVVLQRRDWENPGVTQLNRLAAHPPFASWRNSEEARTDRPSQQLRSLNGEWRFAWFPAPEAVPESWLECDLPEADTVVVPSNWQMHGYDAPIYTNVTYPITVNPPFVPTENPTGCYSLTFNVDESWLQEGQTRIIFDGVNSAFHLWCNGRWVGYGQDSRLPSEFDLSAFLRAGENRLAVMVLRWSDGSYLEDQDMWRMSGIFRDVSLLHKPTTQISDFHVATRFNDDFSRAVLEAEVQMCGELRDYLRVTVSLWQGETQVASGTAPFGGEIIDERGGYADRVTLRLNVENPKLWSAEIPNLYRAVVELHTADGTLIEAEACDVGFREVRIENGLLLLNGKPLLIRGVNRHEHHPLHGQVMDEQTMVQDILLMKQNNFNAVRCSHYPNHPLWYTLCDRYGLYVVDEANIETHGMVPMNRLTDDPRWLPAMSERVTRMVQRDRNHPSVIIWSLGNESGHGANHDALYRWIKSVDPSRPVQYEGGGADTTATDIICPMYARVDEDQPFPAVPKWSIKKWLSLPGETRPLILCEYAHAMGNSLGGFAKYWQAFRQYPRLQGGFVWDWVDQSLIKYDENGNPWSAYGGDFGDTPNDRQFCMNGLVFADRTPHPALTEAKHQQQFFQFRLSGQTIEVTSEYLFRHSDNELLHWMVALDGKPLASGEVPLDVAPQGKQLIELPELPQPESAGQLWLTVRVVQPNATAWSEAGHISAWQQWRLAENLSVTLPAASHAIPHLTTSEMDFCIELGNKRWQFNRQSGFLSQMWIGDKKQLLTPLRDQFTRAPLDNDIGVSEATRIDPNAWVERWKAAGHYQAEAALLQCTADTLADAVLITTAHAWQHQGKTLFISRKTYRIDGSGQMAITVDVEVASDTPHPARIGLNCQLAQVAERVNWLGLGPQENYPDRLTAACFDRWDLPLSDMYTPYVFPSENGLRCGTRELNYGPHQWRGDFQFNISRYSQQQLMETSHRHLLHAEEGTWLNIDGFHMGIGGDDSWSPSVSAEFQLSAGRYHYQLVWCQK
Endoplasmic reticulum aminopeptidase 1, sequence (Q9NZ08 whole entry): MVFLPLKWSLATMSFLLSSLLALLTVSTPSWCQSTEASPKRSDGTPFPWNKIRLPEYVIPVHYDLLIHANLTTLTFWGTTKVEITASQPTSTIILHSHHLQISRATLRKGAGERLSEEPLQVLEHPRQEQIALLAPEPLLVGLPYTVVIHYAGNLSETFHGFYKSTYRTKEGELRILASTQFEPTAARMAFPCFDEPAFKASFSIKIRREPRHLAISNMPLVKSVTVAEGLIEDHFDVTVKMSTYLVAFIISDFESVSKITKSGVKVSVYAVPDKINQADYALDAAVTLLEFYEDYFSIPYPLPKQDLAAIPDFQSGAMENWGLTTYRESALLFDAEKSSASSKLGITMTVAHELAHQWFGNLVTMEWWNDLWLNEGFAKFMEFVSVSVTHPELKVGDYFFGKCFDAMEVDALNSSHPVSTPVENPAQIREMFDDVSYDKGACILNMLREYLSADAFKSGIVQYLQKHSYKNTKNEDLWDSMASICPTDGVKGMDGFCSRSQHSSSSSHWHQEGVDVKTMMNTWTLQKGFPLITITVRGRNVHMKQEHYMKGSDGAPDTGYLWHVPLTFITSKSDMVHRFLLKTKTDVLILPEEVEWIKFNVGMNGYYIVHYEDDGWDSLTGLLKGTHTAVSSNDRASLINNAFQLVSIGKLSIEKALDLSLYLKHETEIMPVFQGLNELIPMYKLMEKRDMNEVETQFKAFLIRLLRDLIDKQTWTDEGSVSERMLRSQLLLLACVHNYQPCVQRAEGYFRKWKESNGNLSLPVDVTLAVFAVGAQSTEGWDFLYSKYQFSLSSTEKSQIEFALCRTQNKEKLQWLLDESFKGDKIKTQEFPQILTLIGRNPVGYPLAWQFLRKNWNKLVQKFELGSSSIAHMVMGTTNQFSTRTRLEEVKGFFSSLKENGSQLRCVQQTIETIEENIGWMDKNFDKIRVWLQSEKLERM
Ubiquitin carboxyl-terminal hydrolase BAP1, sequence (Q92560 whole entry): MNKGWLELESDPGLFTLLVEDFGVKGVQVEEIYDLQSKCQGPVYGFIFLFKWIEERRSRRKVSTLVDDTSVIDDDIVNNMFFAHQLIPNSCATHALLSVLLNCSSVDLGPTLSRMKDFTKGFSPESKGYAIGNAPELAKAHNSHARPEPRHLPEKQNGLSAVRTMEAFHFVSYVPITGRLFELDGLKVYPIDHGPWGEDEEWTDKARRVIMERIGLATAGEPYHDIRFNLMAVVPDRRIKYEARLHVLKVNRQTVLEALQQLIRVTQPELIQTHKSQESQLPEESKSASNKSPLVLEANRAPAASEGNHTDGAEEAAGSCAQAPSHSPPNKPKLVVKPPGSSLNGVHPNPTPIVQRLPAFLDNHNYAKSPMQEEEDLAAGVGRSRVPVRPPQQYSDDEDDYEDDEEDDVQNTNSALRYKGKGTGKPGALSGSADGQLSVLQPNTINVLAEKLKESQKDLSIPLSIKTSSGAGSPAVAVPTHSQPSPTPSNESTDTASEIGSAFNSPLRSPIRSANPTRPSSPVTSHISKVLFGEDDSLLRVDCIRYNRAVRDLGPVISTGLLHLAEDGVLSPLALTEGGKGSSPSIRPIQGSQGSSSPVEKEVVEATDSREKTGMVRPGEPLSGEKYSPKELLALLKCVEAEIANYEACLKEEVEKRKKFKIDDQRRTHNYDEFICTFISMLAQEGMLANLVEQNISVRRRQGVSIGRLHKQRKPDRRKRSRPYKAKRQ
Endoplasmic reticulum aminopeptidase 2, sequence (Q6P179 whole entry): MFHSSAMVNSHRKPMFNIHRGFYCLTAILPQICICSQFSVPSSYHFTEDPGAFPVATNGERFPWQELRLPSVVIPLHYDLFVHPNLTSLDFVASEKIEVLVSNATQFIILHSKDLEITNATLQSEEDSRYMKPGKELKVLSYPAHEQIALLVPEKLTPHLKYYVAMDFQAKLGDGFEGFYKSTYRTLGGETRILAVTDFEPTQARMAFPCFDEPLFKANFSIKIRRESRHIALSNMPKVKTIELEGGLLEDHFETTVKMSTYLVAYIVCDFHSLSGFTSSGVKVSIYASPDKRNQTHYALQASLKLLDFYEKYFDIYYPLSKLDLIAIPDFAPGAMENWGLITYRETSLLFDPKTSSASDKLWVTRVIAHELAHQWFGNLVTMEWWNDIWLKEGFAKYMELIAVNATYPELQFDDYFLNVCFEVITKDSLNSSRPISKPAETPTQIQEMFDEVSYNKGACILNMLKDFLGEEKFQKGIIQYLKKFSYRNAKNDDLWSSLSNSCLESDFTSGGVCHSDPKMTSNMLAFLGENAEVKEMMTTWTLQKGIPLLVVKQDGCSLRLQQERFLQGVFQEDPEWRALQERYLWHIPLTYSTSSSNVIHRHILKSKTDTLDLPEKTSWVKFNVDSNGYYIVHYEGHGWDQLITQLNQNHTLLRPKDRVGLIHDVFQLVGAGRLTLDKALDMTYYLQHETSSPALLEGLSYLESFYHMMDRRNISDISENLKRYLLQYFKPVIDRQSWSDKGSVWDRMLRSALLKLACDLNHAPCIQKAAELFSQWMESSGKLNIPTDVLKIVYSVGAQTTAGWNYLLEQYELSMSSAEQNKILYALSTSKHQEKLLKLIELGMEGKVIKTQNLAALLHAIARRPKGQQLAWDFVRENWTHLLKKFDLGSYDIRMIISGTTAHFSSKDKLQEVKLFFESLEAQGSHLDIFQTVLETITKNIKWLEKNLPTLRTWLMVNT

IC50 [1]: > 50 µM (not active)
EC50 [2]: > 260 µM (inactive)
Compound: O=C1CC(c2ccoc2)CC(Nc2ccccc2)=C1C(=O)Nc1ccccc1 (centres undefined)

IC50 (Beta-galactosidase): > 80 µM (inactive)
IC50 [3]: 0.0028 µM (active)
Compound: O=C(/C=C/c1ccc(Br)cc1)N1CCN(Cc2ccccc2)CC1

EC50 [12]: > 30 µM (inactive)
Compound: CC(C)(C)NC(=O)CN(c1ccccc1Cl)S(C)(=O)=O

IC50 (Bcl-2-related protein A1 [17]): > 100 µM (not active)
IC50 (Bcl-2-related protein A1 [18]): > 100 µM (not active)
IC50 [19]: > 66 µM (inactive)
IC50 [20]: 28.1 µM (inactive)
Compound: NC(=O)N1c2ccccc2CC(=O)c2ccccc21 [OXCARBAZEPINE]

Second part, the molecule before the results:

Compound: C[C@H](CO)N1C[C@H](C)[C@H](CN(C)Cc2ccccc2)OCCCC[C@H](C)Oc2ccc(NC(=O)Nc3ccc(C(F)(F)F)cc3)cc2C1=O
AC50 (Paired box protein Pax-8): 4.95 µM (active)
AC50 [4]: 50 µM (active)
AC50 [5]: 41.4 µM (active)
AC50 [6]: 17.6 µM (active)
AC50 [7]: 26.9 µM (active)

Compound: COc1cccc(N(CC2CC2)C(=O)N2CCN(c3ccccc3C)CC2)c1
IC50 [8]: 0.057 µM (active)
IC50 (Vasopressin V1b receptor): 12.4 µM (inactive)
IC50 (Vasopressin V2 receptor): 20.6 µM (inactive)
IC50 [9]: 20.6 µM (inactive)

Compound: CC(C)[C@@H](C(=O)N[C@@H](CCc1ccc(O)cc1)C(=O)O)N(C)C(=O)[C@H](CO)NC(=O)[C@@H](O)[C@H](N)CCCCCCCCl
AC50 [10]: 1.47 µM (active)
AC50 [11]: 0.682 µM (active)

Compound: COc1ccc(C(=O)/N=c2\sc3ccccc3n2C)cc1
EC50 [13]: > 67.5 µM (inactive)
EC50 (cells [14]): > 67.5 µM (inactive)

Compound: O=C(NN1CCCC1)NS(=O)(=O)c1ccc(Cl)cc1 [GLYCLOPYRAMIDE]
IC50 [15]: 14.9 µM (inactive)
IC50 (cells [16]): > 33.3 µM (inactive)
